Earlier results as cited in patent US20060018840A1, “Aerosolizable formulation comprising nicotine” (priority 2004, published 2006).

CC(O)C(=O)O (stereo not shown) [lactic acid]
pKa: about 3.8
